Values after ≈ are worked out from the molar mass of the structure shown. Active and inactive are the calls of the source. The calls are words filed in the database; no cut-off is given here.
Legend:
[1] = system: Staphylococcus aureus; assay: Antibacterial activity against Staphylococcus aureus ATCC 25825 after 24 hrs by twofold serial dilution method; format: functional; conditions: ATCC 25825, 24 h
[2] = system: Bacillus subtilis; assay: Antibacterial activity against Bacillus subtilis ATCC 451 after 24 hrs by twofold serial dilution method; format: functional; conditions: ATCC 451, 24 h
[3] = system: Salmonella enterica subsp. enterica; assay: Antibacterial activity against Salmonella typhi ATCC 24915 after 24 hrs by twofold serial dilution method; format: functional, Salmonella enterica subsp. enterica serovar Typhi; conditions: ATCC 24915, 24 h
[4] = system: Escherichia coli; assay: Antibacterial activity against Escherichia coli ATCC 25835 after 24 hrs by twofold serial dilution method; format: functional; conditions: ATCC 25835, 24 h
[5] = system: Klebsiella pneumoniae; assay: Antibacterial activity against Klebsiella pneumoniae ATCC 15490 after 24 hrs by twofold serial dilution method; format: functional; conditions: ATCC 15490, 24 h
[6] = system: Cryptococcus neoformans; assay: Antifungal activity against Cryptococcus neoformans ATCC 3312 after 72 to 96 hrs by twofold serial dilution method; format: functional
[7] = system: Candida albicans; assay: Antifungal activity against Candida albicans ATCC 3122 by twofold serial dilution method; format: functional
[8] = system: Rhizopus; assay: Antifungal activity against Rhizopus sp. ATCC 2915 after 72 to 96 hrs by twofold serial dilution method; format: functional
[9] = system: Aspergillus niger; assay: Antifungal activity against Aspergillus niger ATCC 598 after 72 to 96 hrs by twofold serial dilution method; format: functional
[10] = system: Aspergillus flavus; assay: Antifungal activity against Aspergillus flavus ATCC 485 after 72 to 96 hrs by twofold serial dilution method; format: functional
[11] = system: Escherichia coli; assay: Antibacterial activity against Escherichia coli ATCC 25835 at 200 ug/mL after 24 hrs by twofold serial dilution method; format: functional, organism-based
[12] = system: Klebsiella pneumoniae; assay: Antibacterial activity against Klebsiella pneumoniae ATCC 15490 at 200 ug/mL after 24 hrs by twofold serial dilution method; format: functional, organism-based
[13] = system: Aspergillus niger; assay: Antifungal activity against Aspergillus niger ATCC 598 at 200 ug/mL after 72 to 96 hrs by twofold serial dilution method; format: functional, organism-based
[14] = system: Candida albicans; assay: Antifungal activity against Candida albicans ATCC 3122 at 200 ug/mL by twofold serial dilution method; format: functional, organism-based
[15] = system: Rhizopus; assay: Antifungal activity against Rhizopus sp. ATCC 2915 at 200 ug/mL after 72 to 96 hrs by twofold serial dilution method; format: functional, organism-based
[16] = system: Aspergillus flavus; assay: Antifungal activity against Aspergillus flavus ATCC 485 at 200 ug/mL after 72 to 96 hrs by twofold serial dilution method; format: functional, organism-based
[17] = system: Salmonella enterica subsp. enterica; assay: Antibacterial activity against Salmonella typhi ATCC 24915 at 200 ug/mL after 24 hrs by twofold serial dilution method; format: functional, organism-based; conditions: Salmonella enterica subsp. enterica serovar Typhi

Row | Structure (SMILES) | MIC [1] | MIC [2] | MIC [3] | MIC [4] | MIC [5] | MIC [6] | MIC [7] | MIC [8] | MIC [9] | MIC [10] | MIC [11] | MIC [12] | MIC [13] | MIC [14] | MIC [15] | MIC [16] | MIC [17]
1 | CN[C@@H]1[C@H](O[C@H]2[C@H](O[C@H]3[C@H](O)[C@@H](O)[C@H](N=C(N)N)[C@@H](O)[C@@H]3N=C(N)N)O[C@@H](C)[C@]2(O)C=O)O[C@@H](CO)[C@H](O)[C@H]1O [STREPTOMYCIN] | 50 µg/mL (≈ 86 µM) | 12.5 µg/mL (≈ 21.5 µM) | 50 µg/mL (≈ 86 µM) | 12.5 µg/mL (≈ 21.5 µM) | 25 µg/mL (≈ 43 µM) |  |  |  |  |  |  |  |  |  |  |  | 
2 | NC(=S)NN=C1C2CCCC1C(c1ccc(F)cc1)NC2c1ccc(F)cc1 (stereo not given) | 50 µg/mL (≈ 125 µM) | 25 µg/mL (≈ 62.4 µM) | 12.5 µg/mL (≈ 31.2 µM) |  | 100 µg/mL (≈ 250 µM) | 25 µg/mL (≈ 62.4 µM) | 50 µg/mL (≈ 125 µM) | 100 µg/mL (≈ 250 µM) | 100 µg/mL (≈ 250 µM) | 6.25 µg/mL (≈ 15.6 µM) | inactive |  |  |  |  |  | 
3 | O=C1CS/C(=N\N=C2C3CCCC2C(c2cccc(F)c2)NC3c2cccc(F)c2)N1 (stereo not given) | 100 µg/mL (≈ 227 µM) | 50 µg/mL (≈ 114 µM) | 6.25 µg/mL (≈ 14.2 µM) | 100 µg/mL (≈ 227 µM) |  | 12.5 µg/mL (≈ 28.4 µM) | 6.25 µg/mL (≈ 14.2 µM) | 6.25 µg/mL (≈ 14.2 µM) | 100 µg/mL (≈ 227 µM) | 50 µg/mL (≈ 114 µM) |  | inactive |  |  |  |  | 
4 | NC(=S)NN=C1C2CCCC1C(c1ccccc1Cl)NC2c1ccccc1Cl (stereo not given) | 200 µg/mL (≈ 461 µM) | 100 µg/mL (≈ 231 µM) | 50 µg/mL (≈ 115 µM) | 100 µg/mL (≈ 231 µM) | 50 µg/mL (≈ 115 µM) | 100 µg/mL (≈ 231 µM) | 200 µg/mL (≈ 461 µM) | 25 µg/mL (≈ 57.7 µM) | 100 µg/mL (≈ 231 µM) | 100 µg/mL (≈ 231 µM) |  |  |  |  |  |  | 
5 | O=C1CS/C(=N\N=C2C3CCCC2C(c2ccc(Cl)cc2)NC3c2ccc(Cl)cc2)N1 (stereo not given) | 6.25 µg/mL (≈ 13.2 µM) | 25 µg/mL (≈ 52.8 µM) | 6.25 µg/mL (≈ 13.2 µM) | 100 µg/mL (≈ 211 µM) | 50 µg/mL (≈ 106 µM) | 12.5 µg/mL (≈ 26.4 µM) | 25 µg/mL (≈ 52.8 µM) | 6.25 µg/mL (≈ 13.2 µM) | 25 µg/mL (≈ 52.8 µM) | 100 µg/mL (≈ 211 µM) |  |  |  |  |  |  | 
6 | O=C1CS/C(=N\N=C2C3CCCC2C(c2ccccc2)NC3c2ccccc2)N1 (stereo not given) | 50 µg/mL (≈ 124 µM) | 25 µg/mL (≈ 61.8 µM) | 100 µg/mL (≈ 247 µM) | 12.5 µg/mL (≈ 30.9 µM) | 50 µg/mL (≈ 124 µM) | 50 µg/mL (≈ 124 µM) | 50 µg/mL (≈ 124 µM) | 200 µg/mL (≈ 494 µM) |  | 200 µg/mL (≈ 494 µM) |  |  | inactive |  |  |  | 
7 | NC(=S)NN=C1C2CCCC1C(c1ccc(Cl)cc1)NC2c1ccc(Cl)cc1 (stereo not given) | 25 µg/mL (≈ 57.7 µM) | 100 µg/mL (≈ 231 µM) | 100 µg/mL (≈ 231 µM) | 6.25 µg/mL (≈ 14.4 µM) | 200 µg/mL (≈ 461 µM) | 25 µg/mL (≈ 57.7 µM) | 25 µg/mL (≈ 57.7 µM) | 50 µg/mL (≈ 115 µM) | 100 µg/mL (≈ 231 µM) | 6.25 µg/mL (≈ 14.4 µM) |  |  |  |  |  |  | 
8 | Cc1ccc(C2NC(c3ccc(C)cc3)C3CCCC2C3=N/N=C2/NC(=O)CS2)cc1 (stereo not given) | 25 µg/mL (≈ 57.8 µM) | 25 µg/mL (≈ 57.8 µM) | 100 µg/mL (≈ 231 µM) | 50 µg/mL (≈ 116 µM) | 25 µg/mL (≈ 57.8 µM) | 100 µg/mL (≈ 231 µM) | 100 µg/mL (≈ 231 µM) | 50 µg/mL (≈ 116 µM) |  | 25 µg/mL (≈ 57.8 µM) |  |  | inactive |  |  |  | 
9 | NC(=S)NN=C1C2CCCC1C(c1cccc(F)c1)NC2c1cccc(F)c1 (stereo not given) | 6.25 µg/mL (≈ 15.6 µM) | 25 µg/mL (≈ 62.4 µM) | 50 µg/mL (≈ 125 µM) | 100 µg/mL (≈ 250 µM) | 25 µg/mL (≈ 62.4 µM) | 25 µg/mL (≈ 62.4 µM) | 25 µg/mL (≈ 62.4 µM) | 100 µg/mL (≈ 250 µM) | 25 µg/mL (≈ 62.4 µM) | 50 µg/mL (≈ 125 µM) |  |  |  |  |  |  | 
10 | O=C1CS/C(=N\N=C2C3CCCC2C(c2ccc(F)cc2)NC3c2ccc(F)cc2)N1 (stereo not given) | 6.25 µg/mL (≈ 14.2 µM) | 25 µg/mL (≈ 56.8 µM) | 12.5 µg/mL (≈ 28.4 µM) | 50 µg/mL (≈ 114 µM) | 100 µg/mL (≈ 227 µM) | 25 µg/mL (≈ 56.8 µM) | 6.25 µg/mL (≈ 14.2 µM) | 100 µg/mL (≈ 227 µM) | 200 µg/mL (≈ 454 µM) | 100 µg/mL (≈ 227 µM) |  |  |  |  |  |  | 
11 | COc1ccc(C2NC(c3ccc(OC)cc3)C3CCCC2C3=NNC(N)=S)cc1 (stereo not given) | 25 µg/mL (≈ 58.9 µM) | 50 µg/mL (≈ 118 µM) | 200 µg/mL (≈ 471 µM) | 50 µg/mL (≈ 118 µM) | 100 µg/mL (≈ 236 µM) | 50 µg/mL (≈ 118 µM) |  | 200 µg/mL (≈ 471 µM) | 200 µg/mL (≈ 471 µM) | 100 µg/mL (≈ 236 µM) |  |  |  | inactive |  |  | 
12 | NC(=S)NN=C1C2CCCC1C(c1ccccc1)NC2c1ccccc1 (stereo not given) | 50 µg/mL (≈ 137 µM) | 100 µg/mL (≈ 274 µM) | 200 µg/mL (≈ 549 µM) | 100 µg/mL (≈ 274 µM) | 200 µg/mL (≈ 549 µM) | 100 µg/mL (≈ 274 µM) | 200 µg/mL (≈ 549 µM) |  | 200 µg/mL (≈ 549 µM) | 200 µg/mL (≈ 549 µM) |  |  |  |  | inactive |  | 
13 | COc1cccc(C2NC(c3cccc(OC)c3)C3CCCC2C3=N/N=C2/NC(=O)CS2)c1 (stereo not given) | 100 µg/mL (≈ 215 µM) | 100 µg/mL (≈ 215 µM) | 6.25 µg/mL (≈ 13.5 µM) | 50 µg/mL (≈ 108 µM) | 50 µg/mL (≈ 108 µM) | 100 µg/mL (≈ 215 µM) | 50 µg/mL (≈ 108 µM) | 100 µg/mL (≈ 215 µM) | 50 µg/mL (≈ 108 µM) | 200 µg/mL (≈ 430 µM) |  |  |  |  |  |  | 
14 | C[C@@H]1[C@H](O)[C@@H](C)/C=C/C=C/C=C/C=C/C=C/C=C/C=C/[C@H](O[C@@H]2O[C@H](C)[C@@H](O)[C@H](N)[C@@H]2O)C[C@@H]2O[C@](O)(C[C@@H](O)C[C@@H](O)[C@H](O)CC[C@@H](O)C[C@@H](O)CC(=O)O[C@H]1C)C[C@H](O)[C@H]2C(=O)O [AMPHOTERICIN B] |  |  |  |  |  | 25 µg/mL (≈ 27.1 µM) | 25 µg/mL (≈ 27.1 µM) | 25 µg/mL (≈ 27.1 µM) | 50 µg/mL (≈ 54.1 µM) | 50 µg/mL (≈ 54.1 µM) |  |  |  |  |  |  | 
15 | O=C1CS/C(=N/N=C2C3CCCC2C(c2ccccc2Cl)NC3c2ccccc2Cl)N1 (stereo not given) | 100 µg/mL (≈ 211 µM) | 100 µg/mL (≈ 211 µM) | 50 µg/mL (≈ 106 µM) | 25 µg/mL (≈ 52.8 µM) |  | 100 µg/mL (≈ 211 µM) | 50 µg/mL (≈ 106 µM) | 6.25 µg/mL (≈ 13.2 µM) | 25 µg/mL (≈ 52.8 µM) | 50 µg/mL (≈ 106 µM) |  | inactive |  |  |  |  | 
16 | COc1ccc(C2NC(c3ccc(OC)cc3)C3CCCC2C3=N/N=C2/NC(=O)CS2)cc1 (stereo not given) | 6.25 µg/mL (≈ 13.5 µM) | 50 µg/mL (≈ 108 µM) | 100 µg/mL (≈ 215 µM) | 100 µg/mL (≈ 215 µM) | 25 µg/mL (≈ 53.8 µM) | 50 µg/mL (≈ 108 µM) | 100 µg/mL (≈ 215 µM) | 200 µg/mL (≈ 430 µM) | 100 µg/mL (≈ 215 µM) |  |  |  |  |  |  | inactive | 
17 | COc1cccc(C2NC(c3cccc(OC)c3)C3CCCC2C3=NNC(N)=S)c1 (stereo not given) | 50 µg/mL (≈ 118 µM) | 50 µg/mL (≈ 118 µM) | 200 µg/mL (≈ 471 µM) | 25 µg/mL (≈ 58.9 µM) | 100 µg/mL (≈ 236 µM) | 100 µg/mL (≈ 236 µM) | 50 µg/mL (≈ 118 µM) | 100 µg/mL (≈ 236 µM) | 50 µg/mL (≈ 118 µM) |  |  |  |  |  |  | inactive | 
18 | Cc1ccc(C2NC(c3ccc(C)cc3)C3CCCC2C3=NNC(N)=S)cc1 (stereo not given) | 12.5 µg/mL (≈ 31.8 µM) | 100 µg/mL (≈ 255 µM) |  | 50 µg/mL (≈ 127 µM) | 100 µg/mL (≈ 255 µM) | 200 µg/mL (≈ 509 µM) | 200 µg/mL (≈ 509 µM) | 100 µg/mL (≈ 255 µM) | 200 µg/mL (≈ 509 µM) |  |  |  |  |  |  | inactive | inactive

Reference: ChEMBL document CHEMBL1153594, “Design, synthesis and biological evaluation of novel 2-[(2,4-diaryl-3-azabicyclo[3.3.1]nonan-9-ylidene)hydrazono]-1,3-thiazolidin-4-ones as a new class of antimicrobial agents” (2009)
